Assays:
[1] = Toxicity in Swiss albino mouse implanted with mouse Ehrlich cells assessed as mean body weight at 10 mg/kg, iv administered once daily for 20 days (reference value: 30 g); type: organism-based; conditions: in vivo, 480 h, time 20 day
Ehrlich = assay: Antitumor activity against mouse Ehrlich cells implanted in Swiss albino mouse assessed as reduction in tumor volume at 10 mg/kg, iv administered once daily for 20 days relative to control; type: functional; design: scale not given: the % may be the effect or the level left; conditions: time 20 day
[2] = Toxicity in Swiss albino mouse implanted with mouse Ehrlich cells assessed as reduction in body weight gain at 10 mg/kg, iv administered once daily for 20 days relative to control; type: organism-based; design: scale not given: the % may be the effect or the level left; conditions: in vivo, 480 h, time 20 day
PC-3 = assay: Antiproliferative activity against human PC-3 cells assessed as inhibition of cell growth incubated for 24 hrs by MTT assay; type: functional, cell-based; conditions: PC-3, 24 h
HeLa = assay: Antiproliferative activity against human HeLa cells assessed as inhibition of cell growth incubated for 24 hrs by MTT assay; type: functional, cell-based
HEp-2 = assay: Antiproliferative activity against human HEp-2 cells assessed as inhibition of cell growth incubated for 24 hrs by MTT assay; type: functional, cell-based; conditions: HEp-2, 24 h
MCF7 = assay: Antiproliferative activity against human MCF7 cells assessed as inhibition of cell growth incubated for 24 hrs by MTT assay; type: functional, cell-based; conditions: MCF7, 24 h
HepG2 = assay: Antiproliferative activity against human HepG2 cells assessed as inhibition of cell growth incubated for 24 hrs by MTT assay; type: functional, cell-based; conditions: HepG2, 24 h
HCT-116 = assay: cells; conditions: Homo sapiens, HCT-116, 24 h
Description: Antiproliferative activity against human HCT-116 cells assessed as inhibition of cell growth incubated for 24 hrs by MTT assay

[3] = Selectivity index, ratio of IC50 for cytotoxicity against human WI-38 cells to IC50 for antiproliferative activity against human HepG2 cells; type: toxicity, cell-based; conditions: WI-38 cells and HepG2 cells, read-out: Ratio IC50
[4] = Selectivity index, ratio of IC50 for cytotoxicity against human WI-38 cells to IC50 for antiproliferative activity against human HCT-116 cells; type: toxicity, cell-based; conditions: WI-38 cells and HCT-116 cells, read-out: Ratio IC50
[5] = Selectivity index, ratio of IC50 for cytotoxicity against human WI-38 cells to IC50 for antiproliferative activity against human HeLa cells; type: toxicity, cell-based; conditions: WI-38 cells and HeLa cells, read-out: Ratio IC50
[6] = Cytotoxicity against human WI-38 cells assessed as inhibition of cell growth incubated for 24 hrs by MTT assay; type: toxicity, cell-based
[7] = Selectivity index, ratio of IC50 for cytotoxicity against human WI-38 cells to IC50 for antiproliferative activity against human HEp-2 cells; type: toxicity, cell-based; conditions: WI-38 cells and HEp-2 cells, read-out: Ratio IC50
[8] = Selectivity index, ratio of IC50 for cytotoxicity against human WI-38 cells to IC50 for antiproliferative activity against human PC-3 cells; type: toxicity, cell-based; conditions: WI-38 cells and PC-3 cells, read-out: Ratio IC50
[9] = Selectivity index, ratio of IC50 for cytotoxicity against human WI-38 cells to IC50 for antiproliferative activity against human MCF7 cells; type: toxicity, cell-based; conditions: WI-38 cells and MCF7 cells, read-out: Ratio IC50
[10] = target: Epidermal growth factor receptor (Homo sapiens, UniProt P00533); assay: Inhibition of EGFR (unknown origin) by fluorimetric assay
Dihydrofolate reductase = target: T1, Dihydrofolate reductase (Homo sapiens, UniProt P00374); assay: Inhibition of DHFR (unknown origin) incubated for 2 to 5 mins by absorbance based analysis
T1 sequence (P00374 whole entry): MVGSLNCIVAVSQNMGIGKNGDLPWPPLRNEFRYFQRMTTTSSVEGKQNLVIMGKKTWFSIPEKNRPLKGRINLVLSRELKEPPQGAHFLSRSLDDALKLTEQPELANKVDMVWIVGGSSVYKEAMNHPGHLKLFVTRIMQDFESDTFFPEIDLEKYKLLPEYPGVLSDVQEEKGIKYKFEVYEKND

Chain of Epidermal growth factor receptor (P00533 whole entry): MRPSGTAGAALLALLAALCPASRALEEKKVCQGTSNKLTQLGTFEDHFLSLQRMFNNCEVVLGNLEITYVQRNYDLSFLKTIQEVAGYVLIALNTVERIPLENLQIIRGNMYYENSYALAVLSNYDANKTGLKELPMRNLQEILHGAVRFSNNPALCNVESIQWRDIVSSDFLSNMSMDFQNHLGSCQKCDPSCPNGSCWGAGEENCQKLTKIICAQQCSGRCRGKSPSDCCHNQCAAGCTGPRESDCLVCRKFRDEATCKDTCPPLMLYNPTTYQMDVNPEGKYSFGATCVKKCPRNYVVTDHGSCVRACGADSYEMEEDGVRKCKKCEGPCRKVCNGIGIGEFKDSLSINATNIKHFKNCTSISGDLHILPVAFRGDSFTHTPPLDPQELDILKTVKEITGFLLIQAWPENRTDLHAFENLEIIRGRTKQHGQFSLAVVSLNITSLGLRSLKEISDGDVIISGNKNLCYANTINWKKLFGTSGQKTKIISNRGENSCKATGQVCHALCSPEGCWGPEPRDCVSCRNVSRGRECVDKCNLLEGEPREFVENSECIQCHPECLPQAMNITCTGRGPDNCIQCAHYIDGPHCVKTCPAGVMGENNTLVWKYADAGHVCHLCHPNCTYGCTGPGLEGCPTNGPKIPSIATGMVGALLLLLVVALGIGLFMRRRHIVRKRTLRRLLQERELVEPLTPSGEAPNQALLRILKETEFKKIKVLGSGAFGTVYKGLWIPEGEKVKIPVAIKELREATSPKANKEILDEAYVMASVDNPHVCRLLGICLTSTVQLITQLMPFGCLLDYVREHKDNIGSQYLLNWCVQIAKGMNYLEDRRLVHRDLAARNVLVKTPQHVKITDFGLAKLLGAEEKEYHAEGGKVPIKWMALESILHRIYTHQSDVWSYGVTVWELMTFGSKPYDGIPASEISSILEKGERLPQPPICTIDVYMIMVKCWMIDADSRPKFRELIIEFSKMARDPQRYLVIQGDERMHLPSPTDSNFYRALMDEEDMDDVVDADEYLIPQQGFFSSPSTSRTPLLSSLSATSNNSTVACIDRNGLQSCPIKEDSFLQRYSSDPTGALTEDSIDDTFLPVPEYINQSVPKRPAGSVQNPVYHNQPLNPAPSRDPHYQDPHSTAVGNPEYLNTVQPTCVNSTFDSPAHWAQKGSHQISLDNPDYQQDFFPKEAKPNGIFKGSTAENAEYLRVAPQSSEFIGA

SMILES | Activity [1] | Activity (Ehrlich) | Activity [2] | IC50 (PC-3) | IC50 (HeLa) | IC50 (HEp-2) | IC50 (MCF7) | IC50 (HepG2) | IC50 (HCT-116) | selectivity ratio [3] | selectivity ratio [4] | selectivity ratio [5] | IC50 at 24 h [6] | selectivity ratio [7] | selectivity ratio [8] | selectivity ratio [9] | IC50 [10] | IC50 (Dihydrofolate reductase)
COc1cccc2c1C(=O)c1c(O)c3c(c(O)c1C2=O)C[C@@](O)(C(=O)CO)C[C@@H]3O[C@H]1C[C@H](N)[C@H](O)[C@H](C)O1 [DOXORUBICIN] | 27 g | 78.9% | 25% |  |  |  |  |  |  |  |  |  |  |  |  |  |  | 
CCC(=O)NNC(=O)c1csc(NC(C)=O)n1 |  |  |  | 47.5 µM | 26.9 µM | 43.2 µM | 32.8 µM | 39.3 µM | 42.7 µM |  |  |  |  |  |  |  |  | 
CC(=O)Nc1nc(C(=O)NNC(=O)CCN2CCOCC2)cs1 |  |  |  | 10.5 µM | 3.81 µM | 9.19 µM | 5.81 µM | 7.34 µM | 13.2 µM | 7.29 | 4.06 | 14 | 53.5 µM | 5.82 | 5.08 | 9.2 | 143 nM | 159 nM
CC(=O)Nc1nc(C(=O)NNC(=O)CN2CCN(C)CC2)cs1 |  |  |  |  | 78.6 µM | 89.9 µM | 62.8 µM | 83.6 µM | 91.8 µM |  |  |  |  |  |  |  |  | 
CC(=O)Nc1nc(C(=O)NNC(=O)CCN2CCN(Cc3ccccc3)CC2)cs1 |  |  |  | 34.4 µM | 23.6 µM | 39 µM | 29.3 µM | 28.7 µM | 37.1 µM |  |  |  |  |  |  |  |  | 
CC(=O)Nc1nc(C(=O)NNC(=O)CCl)cs1 |  |  |  | 54.7 µM | 35.3 µM | 58 µM | 39.1 µM | 43.8 µM | 52.3 µM |  |  |  |  |  |  |  |  | 
